# Assay results: patent US8703805B2 (Exelixis Patent Company LLC, priority 2005, dated 2014)
# System: LXRα and/or LXRβ
# Test: LXR/LXRE co-transfection assay (luciferase reporter, CV-1 cells)
# Format: cell-based, human
# Settings: IC50 or EC50 for LXR (LXRα and/or LXRβ, not distinguished), tested as described in Example 109, CV-1 cells
# Text: To measure the ability of compounds to activate or inhibit the transcriptional activity of LXR in a cell based assay, the co-transfection assay was used. It has been shown that LXR functions as a heterodimer with RXR. For the co-transfection assay; expression plasmids for LXR and RXR are introduced via transient transfection into mammalian cells along with a luciferase reporter plasmid that contains one copy of a DNA sequence that is bound by LXR-RXR heterodimers (LXRE; Willy, P. ad. 1995). Treatment of transfected cells with an LXR agonist increases the transcriptional activity of LXR, which is measured by an increase in luciferase activity.
# CV-1 African Green Monkey Kidney Cells Co-transfection expression plasmids, comprising full-length LXRα (pCMX-h LXRα, LXRβ (pCMX-hLXRβ), or RXRα (pCMX-RXR), reporter plasmid (LXREx1-Tk-Luciferase), and control (pCMX-Galactosidase expression vector) (Willey et al. Genes & Development 91033-1045 (1995)). Transfection reagent such as FuGENE6 (Roche). 1× Cell lysis buffer (1% Triton X 100 (IT Baker X200-07), 10% Glycerol (JT Baker M778-07), 5 mM Ditriotreitol (Quantum Bioprobe DTT03; add fresh before lysing), 1 mM EGTA (Ethylene Glycol-bis(B-Amino ethyl ether)-N,N,N′,N′-Tetracetic Acid) (Sigma E-4378), 25 mM Tricine (ICN 807420) pH 7.8) 1× Luciferase assay buffer (pH at 7.8) (0.73 mM ATP, 22.3 mM Tricine, 0.11 mM EDTA, 33.3 mM DTT) 1× Luciferrin/CoA (11 mM Luciferin, 3.05 mM Coenzyme A, 10 mM HEPES) Preparation of Screening Reagents
# CV-1 cells were prepared 24 hours prior to the experiment by plating them into T-175 flasks or 500 cm^2 dishes in order to achieve 70-80% confluency on the day of the transfection. The number of cells to be transfected was determined by the number of plates to be screened. each 384 well plate requires 1.92×10^6 cells or 5000 cells per well. DNA Transfection Reagent was prepared by mixing the required plasmid DNAs with a cationic lipid transfection reagent FuGENE6 (Roche) by following the instructions provided with the reagents. Optimal DNA amounts were determined empirically per cell line and size of vessel to be transfected. 10-12 mL of media was added to the DNA Transfection Reagent and this mixture was added to the cells after aspirating media from the T175 cm^2 flask. Cells were then incubated at least 5 hours at 37° C. to prepare screening cells.
# Luciferase assay reagent was prepared by combining before use (per 10 mL): […], 0.54 mL of 1× Luciferrin/CoA; 0.54 mL of 0.2 M Magnesium sulfate
# Assay plates were prepared by dispensing 5 μL of compound per well of a 384 well plate to achieve final compound concentration of 10 μM and no more than 1% DMSO. Media was removed from the screening cells, the cells trypsinized, harvested cells by centrifugation, counted, and plated at a density of approximately 5000 cells per well in the 384 well assay plate prepared above in a volume of about 45 μL. Assay plates containing both compounds and screening cells (50 μL in total volume) were incubated for 20 hours at 37° C.
# After incubation with compounds, media was removed from the cells and lysis buffer (30 μL/well) added. After 30 minutes at ambient temperature, luciferase assay buffer (30 μL/well) was added and the assay plates read on a luminometer (PE Biosystems Northstar reader with on-board injectors, or equivalent). Plates were read immediately after addition of luciferase assay buffer.
# The LXR/LXRE co-transfection assay can be used to establish the EC50/IC50 values for potency and percent activity or inhibition for efficacy. Efficacy defines the activity of a compound relative to a high control ((N-(3-((4-fluorophenyl)-(naphthalene-2-sulfonyl)amino)propyl)-2,2-dimethylpropionamide)) or a low control (DMSO/vehicle). The dose response curves are generated from an 8 point curve with concentrations differing by ½ LOG units. each point represents the average of 4 wells of data from a 384 well plate. […]
row,EC50 [µM],SMILES
1,< 1,"CC(C)(O)c1cc(-c2c(F)cccc2Cl)n(-c2ccc(-c3cccc(S(C)(=O)=O)c3)cc2Cl)n1 [Example 130, 2-(1-(3-chloro-3′-(methylsulfonyl)biphenyl-4-yl)-5-(2-chloro-6-fluorophenyl)-1H-pyrazol-3-yl)propan-2-ol]"
2,< 1,"CS(=O)(=O)c1cccc(-c2ccc(-c3cc(C(=O)NCC(F)(F)F)nn3-c3c(Cl)cccc3Cl)c(Cl)c2)c1 [Example 1397, 5-(3-chloro-3′-(methylsulfonyl)biphenyl-4-yl)-1-(2,6-dichlorophenyl)-N-(2,2,2-trifluoroethyl)-1H-pyrazole-3-carboxamide]"
3,1 to 10,"CC(=O)c1cc(-c2ccccc2Cl)n(-c2ccc(-c3cccc(S(C)(=O)=O)c3)cn2)n1 [Example 1248, 1-[5-(2-chlorophenyl)-1-(5-[3-(methylsulfonyl)phenyl]pyridin-2-yl}-1H-pyrazol-3-yl]ethanone]"
4,1 to 10,"COC(=O)c1cc(-c2ccc(-c3cccc(S(C)(=O)=O)c3)s2)n(-c2ccccc2C(F)(F)F)n1 [Example 1156, methyl 5-{5-[3-(methylsulfonyl)phenyl]-2-thienyl}-1-[2-(trifluoromethyl)phenyl]-1H-pyrazole-3-carboxylate]"
5,< 1,"Cc1c(F)cccc1-n1nc(C(C)(C)O)cc1-c1ccc(-c2cccc(S(C)(=O)=O)c2)s1 [Example 1361, 2-[1-(3-fluoro-2-methylphenyl)-5-{5-[3-(methylsulfonyl)phenyl]-2-thienyl}-1H-pyrazol-3-yl]propan-2-ol]"
6,< 1,"Cc1cc(-c2cccc(S(C)(=O)=O)c2)ccc1-n1nc(C(C)(C)O)cc1-c1cccc(Cl)c1Cl [Example 136, 2-(5-(2,3-dichlorophenyl)-1-(3-methyl-3′-(methylsulfonyl)biphenyl-4-yl)1H-pyrazol-3-yl)propan-2-ol]"
7,< 1,"CON(C)C(=O)c1cc(-c2ccc(-c3cccc(S(C)(=O)=O)c3)s2)n(-c2ccccc2Cl)n1 [Example 1162, 1-(2-chlorophenyl)-N-methyl-N-(methyloxy)-5-{5-[3-(methylsulfonyl)phenyl]-2-thienyl}-1H-pyrazole-3-carboxamide]"
8,1 to 10,"CC(C)(O)c1ccc(-c2ccc(-c3cc(C(F)(F)F)nn3-c3ncccc3C(F)(F)F)s2)cc1 [Example 1253, 2-[4-(5-{3-(trifluoromethyl)-1-[3-(trifluoromethyl)pyridin-2-yl]-1H-pyrazol-5-yl}-2-thienyl)phenyl]propan-2-ol]"
9,< 1,"C/C(=N\OCCN(C)C)c1cc(-c2ccc(-c3cccc(S(C)(=O)=O)c3)s2)n(-c2ccccc2Cl)n1 [Example 1337, (1E)-1-[1-(2-chlorophenyl)-5-{5-[3-(methylsulfonyl)phenyl]-2-thienyl}-1H-pyrazol-3-yl]ethanone O-[2-(dimethylamino)ethyl]oxime]"
10,< 1,"CC(C)S(=O)(=O)c1cccc(-c2ccc(-c3cc(C(F)(F)F)nn3-c3ccccc3Cl)cc2)c1 [Example 1167, 1-(2-chlorophenyl)-5-{3′-[(1-methylethyl)sulfonyl]biphenyl-4-yl}-3-(trifluoromethyl)-1H-pyrazole]"
11,1 to 10,"CC(C)(O)c1cccc(-c2ccc(-c3cc(C(F)(F)F)nn3-c3ncccc3C(F)(F)F)s2)c1 [Example 1252, 2-[3-(5-{3-(trifluoromethyl)-1-[3-(trifluoromethyl)pyridin-2-yl]-1H-pyrazol-5-yl}-2-thienyl)phenyl]propan-2-ol]"
12,< 1,"CS(=O)(=O)c1cc(-c2ccc(-c3cc(C(F)(F)F)nn3-c3ncccc3C(F)(F)F)s2)ccc1CO [Example 1149, [2-(methylsulfonyl)-4-(5-{3-(trifluoromethyl)-1-[3-(trifluoromethyl)pyridin-2-yl]-1H-pyrazol-5-yl}-2-thienyl)phenyl]methanol]"
13,< 1,"NS(=O)(=O)c1cccc(-c2ccc(-c3cc(C(F)(F)F)nn3-c3ccccc3Cl)cc2)c1 [Example 1137, 4′-[1-(2-chlorophenyl)-3-(trifluoromethyl)-1H-pyrazol-5-yl]biphenyl-3-sulfonamide]"
14,< 1,"CN(C)C(C)(C)c1cc(-c2ccc(-c3cccc(S(C)(=O)=O)c3)s2)n(-c2ccccc2Cl)n1 [Example 1172, 2-[1-(2-chlorophenyl)-5-{5-[3-(methylsulfonyl)phenyl]-2-thienyl}-1H-pyrazol-3-yl]-N,N-dimethylpropan-2-amine]"
15,1 to 10,"CC(=O)c1ccc(-c2ccc(-c3cc(C(C)(C)O)nn3-c3ccccc3Cl)cc2)s1 [Example 1290, 1-(5-{4-[1-(2-chlorophenyl)-3-(1-hydroxy-1-methylethyl)-1H-pyrazole-5-yl]phenyl}-2-thienyl)ethanone]"
16,< 1,"CC(C)(O)c1nn(-c2c(Cl)cncc2Cl)c(-c2ccc(-c3cccc(S(C)(=O)=O)c3)s2)c1Cl [Example 127, 2-(4-chloro-1-(3,5-dichloropyridin-4-yl)-5-(5-(3-(methylsulfonyl)phenyl)thiophen-2-yl)-1H-pyrazol-3-yl)propan-2-ol]"
17,< 1,"CC(=O)c1cc(-c2ccc(-c3cccc(S(C)(=O)=O)c3)s2)n(-c2ccccc2)n1 [Example 1268, 1-(5-{5-[3-(methylsulfonyl)phenyl]-2-thienyl}-1-phenyl-1H-pyrazol-3-yl)ethanone]"
18,< 1,"CCN(CC)CCN(CC)C(=O)c1cc(-c2ccc(-c3cccc(S(C)(=O)=O)c3)s2)n(-c2ccccc2Cl)n1 [Example 587, 1-(2-chlorophenyl)-N-[2-(diethylamino)ethyl]-N-ethyl-5-{5-[3-(methylsulfonyl)phenyl]-2-thienyl}-1H-pyrazole-3-carboxamide]"
19,< 1,"Cc1cc(-c2cccc(S(C)(=O)=O)c2)ccc1-c1c(Cl)c(C(C)(C)O)nn1-c1c(Cl)cccc1Cl [Example 1386, 2-(4-chloro-1-(2,6-dichlorophenyl)-5-(3-methyl-3′-(methylsulfonyl)biphenyl-4-yl)-1H-pyrazol-3-yl)propan-2-ol]"
20,< 1,"CC(C)(O)c1cc(-c2ccc(-c3cccc(S(C)(=O)=O)c3)s2)n(-c2c(F)cccc2Cl)n1 [Example 1344, 2-[1-(2-chloro-6-fluorophenyl)-5-{5-[3-(methylsulfonyl)phenyl]-2-thienyl}-1H-pyrazol-3-yl]propan-2-ol]"
21,< 1,"CS(=O)(=O)c1cccc(-c2ccc(-c3cc(C(=O)NCCCN4CCCC4)nn3-c3ccccc3Cl)s2)c1 [Example 733, 1-(2-chlorophenyl)-5-{5-[3-(methylsulfonyl)phenyl]-2-thienyl}-N-(3-pyrrolidin-1-ylpropyl)-1H-pyrazol-3-carboxamide]"
22,1 to 10,"CN1CCC(N(C(=O)c2ccc(-c3cc(C(F)(F)F)nn3-c3ccccc3Cl)cc2)C2CC2)CC1 [Example 1029, 4-[1-(2-chlorophenyl)-3-(trifluoromethyl)-1H-pyrazol-5-yl]-N-cyclopropyl-N-(1-methylpiperidin-4-yl)benzamide]"
23,1 to 10,"Cc1cc(-n2nc(C(C)(C)O)cc2-c2c(Cl)cccc2Cl)ccc1-c1cccc(S(C)(=O)=O)c1 [Example 1417, 2-(5-(2,6-dichlorophenyl)-1-(2-methyl-3′-(methylsulfonyl)biphenyl-4-yl)-1H-pyrazol-3-yl)propan-2-ol]"
24,1 to 10,"CC(C)(O)c1cc(-c2ccccc2Cl)n(-c2ccc(-c3cccc(S(C)(=O)=O)c3)cc2)n1 [Example 1217, 2-{5-(2-chlorophenyl)-1-[3′-(methylsulfonyl)biphenyl-4-yl]-1H-pyrazol-3-yl}propan-2-ol]"
